# Results reported in US20180344798A1, “TOPICALLY ACTIVE PEPTIDES FOR TREATING COSMETIC AND DERMATOLOGICAL CONDITIONS” (priority 2017, published 2018).
# Where “and” joins values, the source holds several entries; their conditions need not be identical. Identical values can stand only once.
# Assays:
# [1] = test system: normal human epidermal keratinocytes; conditions: Hu, Paoletti, 2013; cited from earlier work
# [2] = aqueous solutions; U.S. Pat. No. 7,390,788; cited from earlier work
# [3] = test system: plasma inflammatory cytokines; conditions: Ruff, cited from earlier work
# [4] = route of dosing not described; U.S. Pat. No. 5,798,335; cited from earlier work
# [5] = test system: TLR4-mediated maturation of dendritic cells
# Procedure: To determine whether all-D-TTNYT (SEQ ID NO: 1) blocks maturation of dendritic cells human PBMC's were isolated from peripheral blood by Ficoll-Paque centrifugation and then monocytes were isolated by negative selection using immunobeads (Miltenyi). Human monocyte derived immature dendritic cells (iDCs) were then generated by treating monocytes with GM-CSF/IL4 for 5 days.
# The iDCs were treated with all-D-TTNYT (SEQ ID NO: 1) at 10^−12 M for 30 min. After 30 min LPS (100 ng/ml) was added to the cells and cells were analyzed after 48 hrs for surface maturation markers using fluorescent labeled antibodies by flow cytometry. […] The surface markers control T cell activation and localization in tissues. DCs, like microglia, are derived from differentiated monocytes and serve as the innate and adaptive sentinel cells of the skin and brain, respectively. Blockade of DC or microglial activation would suppress inflammation.
# [6] = test system: DC maturation caused by LL37 (IGF-1R)
# [7] = test system: rodent spinal cord tissue; conditions: Rat, Padi, 2012; cited from earlier work
# [8] = topical oil/water lotion 50 μg/ml, 2× per day, 28 days
# Procedure: Self-reported “Severity Scores” on a scale of 1-10 (with 10 being most severe) were recorded in a daily symptom report form to record the symptom score and compliance. The change from baseline is plotted for the day 0, 7, 14, 21, 28 and 35 (one week “off” treatment) symptom scores.
# Topical administration of all-D-TTNYT (SEQ ID NO: 1) was formulated in an oil/water lotion consisting of deionized water, caprylic/capric triglyceride, polyglyceryl-6-stearate, polyglyceryl-6-behenate, cetearyl alcohol, and glyceryl stearate.
# response to bradykinin = conditions: amounts up to 50,000 times the standard challenge of bradykinin; cited from earlier work
# [9] = Hu, DAPTA administered for 7 weeks
# [10] = Hu dendritic cells, peptide 10^-12 M 30 min, then LPS 100 ng/ml, 48 hrs, unpublished
substance,measurement,setting,value
Dalal-peptide T-amide [DAPTA],ICAM1 change,[1],decrease
same,IL-6 change,[1],decrease
same,IL-8 change,[1],decrease
same,IL-23 change,[1],decrease
same,pSTAT3 change,[1],decrease
same,aggregation and loss of potency upon storage,[2],high propensity for DAPTA to aggregate and lose potency
same,IL-1 change,[3]; [9],decrease
same,IL-6 change,[3]; [9],decrease
same,IL-8 change,[3]; [9],decrease
same,TNFα change,[3]; [9],decrease
same,anti-inflammatory cytokine IL-10 (M2-type) change,"[3]; human subjects, DAPTA for 7 weeks",increased
same,improvement of eczema/dermatitis in dogs,[4],"Improvement in two dogs with dermatitis, mild improvement in five cases of erythema, and no improvement in ten cases"
all-D-TTNYT,CD58 change,[5]; [10],decrease
same,CD86 change,[5]; [10],decrease
same,DR change,[5]; [10],decrease
same,ICAM1 change,[5]; [10],decrease
same,"expression of maturation markers CD86, HLA-DR, CD58 and ICAM1","[5]; iDCs pre-treated with peptide, then LPS, flow cytometry",reduces expression of all the maturation markers
same,effect on DC maturation of the four markers caused by LL37,[6],no effect
same,IL-1β change,[7],decrease
same,IL-6 change,[7],decrease
same,self-reported Severity Scores in dermatocosmetic conditions,"[8]; five subjects, scale 1-10",improved
same,"appearance of rosacea, atopic dermatitis, and psoriasis",[8]; subject reports,"improvements in the appearance of rosacea, atopic dermatitis, and psoriasis"
all-D-TTNYT-NH2,"Timed Walk, Post","after topical lotion 50 μg/ml, 2× per day to feet, 28 days, measured fixed distance",24 s
same,"Pain Score, Post","after topical lotion 50 μg/ml, 2× per day to feet, 28 days, scale 1-10, per subject",3
same,"Timed Walk, Pre","before treatment (baseline), measured fixed distance",48 s
same,"Pain Score, Pre","before treatment (baseline), self-reported scale 1-10, per subject",7 and 6
same,pain sensitivity on self-reported Severity Scores,"two subjects with diabetic neuropathy symptoms, topical lotion 50 μg/ml, 2× per day",Reduced pain sensitivity
all-D-bradykinin,inhibition of the response to bradykinin or bradykinin-like effect,response to bradykinin,"neither any inhibition of the response to bradykinin, or any bradykinin-like effect"
